Laboratory results: patent publication US7495027B2, “3-aryl-4-hydroxyfuranone compounds and the human and animal health use thereof” (Wyeth, priority 2003, dated 2009)
Values after ≈ are worked out from the molar mass of the structure shown. Like-named read-outs stand apart in the source and are kept apart here.

Key:
[1] = biological target: E. coli UDP-N-acetylglucosamine enolpyruvoyl transferase, MurA (Escherichia coli, UniProt P0A749); assay: biochemical; conditions: (E) E. coli enzyme
Method: Evaluation of the Inhibitory Activity of Test Compounds Against Enzymes which Catalyze Bacterial Cell Wall Biosynthesis
S. aureus and E. coli UDP-N-acetylglucosamine enolpyruvoyl transferase, MurA
(§1) Preparation of Enzyme Solution:
The enzyme solution is prepared by admixing the following: 50 mM Tris/HCl pH 8.0, […] 1 M Tris, 5 mM DTT, […] 1 M DTT, 20% Glycerol 4 ml 50% Glycerol, add water to 10 ml.
(§2) Preparation of Stop Solution:
A procedure similar to that described by C. […] Experiments are performed by adding a solution of test compound (in a mixture of dimethylsulfoxide and water) and an enzyme solution to a well. After a pre-incubation period of 10 mintues at 37° C., Tris/BME buffer and assay buffer are added. A start point optical density (OD0) reading is taken at 340 nm immediately following the addition of assay buffer. After incubation for 1 hr at 37° C., the stop solution is added and the color is allowed to develop for 30 minutes.

[2] = biological target: E. coli Enopyruvyl-UPD-N-acetylglucosamine reductase, Mur B (Escherichia coli, UniProt P08373); assay: biochemical; conditions: (E) E. coli enzyme; for IC50: read-out: MurB IC50 (converted)
E. coli Enopyruvyl-UPD-N-acetylglucosamine reductase, Mur B, sequence (P08373 whole entry): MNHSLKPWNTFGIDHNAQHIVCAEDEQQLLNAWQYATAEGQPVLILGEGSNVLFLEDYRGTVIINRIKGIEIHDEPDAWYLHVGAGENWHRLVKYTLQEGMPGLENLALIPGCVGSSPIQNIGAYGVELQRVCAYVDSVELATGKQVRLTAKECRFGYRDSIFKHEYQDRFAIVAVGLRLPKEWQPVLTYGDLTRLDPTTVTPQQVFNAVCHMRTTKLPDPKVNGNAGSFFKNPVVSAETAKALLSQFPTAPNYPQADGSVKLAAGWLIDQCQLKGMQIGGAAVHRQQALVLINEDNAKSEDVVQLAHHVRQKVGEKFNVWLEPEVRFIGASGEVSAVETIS
Method: S. aureus and E. coli Enopyruvyl-UPD-N-acetylglucosamine reductase, Mur B
Preparation of Tris/BME buffer:
Dilute 17.5 uL of aqueous 5 mM BME (2-mercaptoethanol) to 50 mL with 50 mM Tris/HCl (pH 8.0).
as §1
Dilute aqueous MurB stock solution (0.94 mg/mL) with 200 parts 50 mM Tris/2-BME buffer.
Synthesis of Substrate for MurB (MurA Product EP-UDP-GluNAc):
A mixture of 13 mg UDP-N-acetylglucosamine and 5.5 mg phosphoenolpyruvate are dissolved in 10 mL Tris/BME buffer forming 2 mM concentrations of each reagent in solution.
Preparation of Assay Buffer:
The assay buffer is prepared in water from reagents with the following final concentrations: 100 mM Tris/HCl (pH 8.0), 200 μM NADPH, 100 μM MurB substrate, 10 μM 2-mercaptoethanol, and 10 μM KCl.
Experiments are performed by adding 20 μL of a solution of test compound in a mixture of dimethylsulfoxide and water and 30 μL of enzyme solution to a well. After a pre-incubation period of 20 mins. at 23° C., 50 μL of Tris/BME buffer and 100 μL of assay buffer are added. […] Controls are performed using the same procedure and employing 20 μL of a blank dimethylsulfonide and solvent mixture in place of the test compound solution.
Using these values, the IC50 for each test compound is determined by linear regression analysis.

[3] = biological target: E. coli Uridine-diphosphate-N-acetvimuramoyl: L-alanine lipase, MurC (Escherichia coli, UniProt P17952); assay: Inhibitory activity against MurC (E. coli); assay type: biochemical; conditions: (E) E. coli enzyme; for IC50: read-out: MurC IC50 (converted)
E. coli Uridine-diphosphate-N-acetvimuramoyl: L-alanine lipase, MurC, sequence (P17952 whole entry): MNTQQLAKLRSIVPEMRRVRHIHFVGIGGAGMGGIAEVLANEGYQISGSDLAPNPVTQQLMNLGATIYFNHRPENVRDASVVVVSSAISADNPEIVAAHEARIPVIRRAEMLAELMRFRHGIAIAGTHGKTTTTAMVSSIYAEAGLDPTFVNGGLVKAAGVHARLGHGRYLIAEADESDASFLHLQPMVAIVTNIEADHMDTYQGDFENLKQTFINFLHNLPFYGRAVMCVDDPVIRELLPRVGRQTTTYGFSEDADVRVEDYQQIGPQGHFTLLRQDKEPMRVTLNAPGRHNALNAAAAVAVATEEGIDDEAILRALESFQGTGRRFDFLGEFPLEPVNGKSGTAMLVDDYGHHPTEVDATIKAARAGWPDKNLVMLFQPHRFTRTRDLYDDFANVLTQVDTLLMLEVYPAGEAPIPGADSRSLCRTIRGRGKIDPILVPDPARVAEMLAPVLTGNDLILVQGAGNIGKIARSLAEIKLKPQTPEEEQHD
Method: S. aureus and E. coli Uridine-diphosphate-N-acetvimuramoyl: L-alanine lipase, MurC
The buffer is prepared from aqueous reagents with the following final concentrations: 83 mM Tris/HCl (pH 8.0), 50 mM MgC12, and 2 mM ATP.
as §1
A 1 mg/mL stock solution of MurC is prepared in a buffer consisting of 20 mM Tris/HCl (pH 8.5) with 2.5 μM BME. The stock solution is further diluted with the buffer to give a final enzyme concentration of 100 μg/mL for the E. coli stock solution and 70 μg/mL for the S. aureus stock solution.
(§3) Preparation of Test Compound Solutions:
(§4) All test solutions are prepared in DMSO as 10 mg/mL, then diluted with 50 mM Tris/HCl (pH 8.5) to 100 μg/mL.
as §2
The stop solution is prepared by stirring 1 part 4.2% ammonium molydbate in 4N HCl with 2 parts 0.045% malachite green for 30 min.
In this evaluation, the inhibitory activity of a test compound against MurC, the enzyme which catalyzes the third step of bacterial cell wall bioxynthesis is determined. Experiments are performed by adding 2.5 μl buffer, 2.5 μl 0.5M NH4SO2, 5 μl 2 μM L-Ala, 5 μl enzyme solution and 6.5 μl test compound solution to each well in a 96-well microplate. After a pre-incubation period of 10 mins. at 23° C., 3.75 μl of a 0.75 μM solution of UDP-MurNac is added to each well. Following an incubation period of 10 mins. at 37° C., 210 μl stop solution and 50 μl of a 34% w/v sodium citrate solution are added and color is allowed to develop for 10 mins. at 23° C. (Lanzetta et al., Analytical Biochemistry, 1979, 95) Optical density readings are taken at 660 nm using a Molecular Devices Spectra Max 250 with Soft Max software. Controls are performed using the same procedure and omitting the addition of UDP-MurNac.
Using these values the IC50 is determined by linear regression analysis.

[4] = biological target: E. coli Uridine-diphosphate-N-acetylmuramoyl-L-alanine: D-glutamate liease, MurD (Escherichia coli, UniProt P14900); assay: biochemical; conditions: (E) E. coli enzyme
E. coli Uridine-diphosphate-N-acetylmuramoyl-L-alanine: D-glutamate liease, MurD, sequence (P14900 whole entry): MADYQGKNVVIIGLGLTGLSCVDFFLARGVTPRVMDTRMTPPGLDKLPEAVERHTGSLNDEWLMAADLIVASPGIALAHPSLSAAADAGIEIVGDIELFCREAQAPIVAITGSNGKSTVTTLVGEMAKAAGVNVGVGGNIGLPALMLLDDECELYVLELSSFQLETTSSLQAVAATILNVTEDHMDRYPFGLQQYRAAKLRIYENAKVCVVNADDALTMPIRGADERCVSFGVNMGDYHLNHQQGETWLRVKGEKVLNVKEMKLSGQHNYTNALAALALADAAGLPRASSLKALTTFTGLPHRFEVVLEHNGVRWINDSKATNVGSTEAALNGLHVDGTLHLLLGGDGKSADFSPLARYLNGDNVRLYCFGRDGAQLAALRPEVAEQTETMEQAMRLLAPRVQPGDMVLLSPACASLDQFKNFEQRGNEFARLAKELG
Method: S. aureus and E. coli Uridine-diphosphate-N-acetylmuramoyl-L-alanine: D-glutamate liease, MurD
The buffer is prepared from aqueous reagents with the following final concentrations: 83 mM Tris/HCl (pH 8.0), 50 mM MgCl2, and 2 mM ATP.
as §1, §3, §4, §2
In this evaluation, the inhibitory activity of a test compound against MurD, the enzyme which catalyzes the fourth step of bacterial cell wall biosynthesis is determined.

staphylococci = assay: Minimum inhibitory concentration, microdilution broth method, staphylococci; assay type: cell-based; conditions: Staphylococcus aureus, Mueller-Hinton broth, 18-22 hours at 35° C.
Method: (§5) Evaluation of the Minimum Inhibitory Concentration of Test Compounds Against A Variety of Bacterial Strains
(§6) In this evaluation the minimal inhibitory concentration (MIC) of test compounds against Gram positive and Gram negative bacteria is performed using the microdilution broth method as recommended by the National Committee for Clinical Laboratory Standards (Approved Standards M7-A5 2000). Mueller-Hinton broth is used for the enterobacteriaceae, staphylococci and enterococci. Streptococci are also tested in Mueller-Hinton broth supplemented with 5% horse blood (LHB). Test organisms include recent clinical isolates that are resistant to methicillin, penicillin and/or vancomycin. […].

enterococci = assay: Minimum inhibitory concentration, microdilution broth method, enterococci; assay type: cell-based; conditions: Enterococcus faecalis, Mueller-Hinton broth, 18-22 hours at 35° C.
Method: as §5, §6

Streptococci = assay: Minimum inhibitory concentration, microdilution broth method, streptococci; assay type: cell-based; conditions: S. pneumo GC 1894; Mueller-Hinton broth with 5% horse blood, 18-22 hours at 35° C.
Method: as §5, §6

[5] = S. aureus GC 1131, read-out: MIC S. aureus GC 1131
[6] = S. aureus GC 4543, read-out: MIC S. aureus GC 4543
[7] = E. faecalis GC 2242, read-out: MIC E. faecalis GC 2242
[8] = E. faecalis GC 4555, read-out: MIC E. faecalis GC 4555

E. coli UDP-N-acetylglucosamine enolpyruvoyl transferase, MurA, sequence (P0A749 whole entry): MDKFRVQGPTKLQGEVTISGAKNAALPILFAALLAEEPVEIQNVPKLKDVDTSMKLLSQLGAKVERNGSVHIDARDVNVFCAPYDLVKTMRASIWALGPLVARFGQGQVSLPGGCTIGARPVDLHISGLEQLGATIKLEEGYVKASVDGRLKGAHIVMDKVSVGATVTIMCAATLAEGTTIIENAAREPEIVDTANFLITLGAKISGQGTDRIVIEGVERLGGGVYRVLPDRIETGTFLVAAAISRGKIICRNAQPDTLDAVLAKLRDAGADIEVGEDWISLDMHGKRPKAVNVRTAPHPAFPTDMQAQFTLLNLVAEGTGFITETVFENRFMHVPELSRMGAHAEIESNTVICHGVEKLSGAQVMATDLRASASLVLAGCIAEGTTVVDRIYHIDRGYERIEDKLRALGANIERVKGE

| Structure (SMILES) | IC50 [1] | IC50 [2] | IC50 [3] | IC50 [4] | MIC (staphylococci; [5]) | MIC (staphylococci; [6]) | MIC (enterococci; [7]) | MIC (enterococci; [8]) | MIC (Streptococci) | MurA IC50 [1] | MurB IC50 [2] | MurC IC50 [3] | MurD IC50 [4] |
| --- | --- | --- | --- | --- | --- | --- | --- | --- | --- | --- | --- | --- | --- |
| CC(C)(C)c1ccc(-c2ccc(C3=C(O)/C(=C/c4cc(C(F)(F)F)ccc4Cl)OC3=O)cc2)cc1 [Example 128] | 8.02 µM | 10 µM | 48.1 µM | > 50.1 µM | 8 µg/mL (≈ 16 µM) | 4 µg/mL (≈ 8.02 µM) | 2 µg/mL (≈ 4.01 µM) | 8 µg/mL (≈ 16 µM) | 0.25 µg/mL (≈ 0.501 µM) |  |  |  |  |
| CC(C)(C)c1ccc(-c2ccc(C3=C(O)/C(=C/c4cc(C(F)(F)F)ccc4F)OC3=O)cc2)cc1 [Example 120] | 8.29 µM | 10.4 µM | 47.7 µM | 33.2 µM | 16 µg/mL (≈ 33.2 µM) | 16 µg/mL (≈ 33.2 µM) | 4 µg/mL (≈ 8.29 µM) | 8 µg/mL (≈ 16.6 µM) | 0.5 µg/mL (≈ 1.04 µM) |  |  |  |  |
| CC(C)(C)c1ccc(-c2ccc(C3=C(O)/C(=C/c4cccc(C(F)(F)F)c4)OC3=O)cc2)cc1 [Example 132] | 6.46 µM | 6.46 µM | 51.7 µM | 17.2 µM | 16 µg/mL (≈ 34.4 µM) | 16 µg/mL (≈ 34.4 µM) | 4 µg/mL (≈ 8.61 µM) | 8 µg/mL (≈ 17.2 µM) | 0.25 µg/mL (≈ 0.538 µM) |  |  |  |  |
| O=C1O/C(=C\c2cccc(C(F)(F)F)c2Cl)C(O)=C1c1ccc(-c2ccccc2)cc1 [Example 113] | 9.03 µM | 6.77 µM | > 56.5 µM | > 56.5 µM | 1 µg/mL (≈ 2.26 µM) | 2 µg/mL (≈ 4.52 µM) | 1 µg/mL (≈ 2.26 µM) | 4 µg/mL (≈ 9.03 µM) | 0.25 µg/mL (≈ 0.565 µM) |  |  |  |  |
| CCCc1ccc(-c2ccc(C3=C(O)/C(=C/c4cccc(C(F)(F)F)c4)OC3=O)cc2)cc1 [Example 131] | 8.88 µM | 4.44 µM | 40 µM | 20 µM | 32 µg/mL (≈ 71 µM) | 16 µg/mL (≈ 35.5 µM) | 4 µg/mL (≈ 8.88 µM) | 8 µg/mL (≈ 17.8 µM) | 0.25 µg/mL (≈ 0.555 µM) |  |  |  |  |
| CCCc1ccc(-c2ccc(C3=C(O)/C(=C/c4cc(F)cc(C(F)(F)F)c4)OC3=O)cc2)cc1 [Example 111] | > 53.4 µM | 23.5 µM | > 53.4 µM | > 53.4 µM | 32 µg/mL (≈ 68.3 µM) | 16 µg/mL (≈ 34.2 µM) | 1 µg/mL (≈ 2.13 µM) | 16 µg/mL (≈ 34.2 µM) | 0.25 µg/mL (≈ 0.534 µM) |  |  |  |  |
| O=C1O/C(=C\c2cc(C(F)(F)F)ccc2F)C(O)=C1c1ccc(-c2ccccc2)c(F)c1 [Example 119] |  |  |  |  | 2 µg/mL (≈ 4.5 µM) | 2 µg/mL (≈ 4.5 µM) | 2 µg/mL (≈ 4.5 µM) | 2 µg/mL (≈ 4.5 µM) | 0.5 µg/mL (≈ 1.13 µM) | 1 (E) μg/mL | 1 (E) μg/mL | 2 (E) μg/mL | 6 (E) μg/mL |
| CC(C)(C)c1ccc(-c2ccc(C3=C(O)/C(=C/c4cccc(C(F)(F)F)c4Cl)OC3=O)cc2)cc1 [Example 116] | 6.01 µM | 8.02 µM | > 50.1 µM | > 50.1 µM | 8 µg/mL (≈ 16 µM) | 8 µg/mL (≈ 16 µM) | 4 µg/mL (≈ 8.02 µM) | 4 µg/mL (≈ 8.02 µM) | < 0.125 µg/mL |  |  |  |  |
